In patent publication US20180338980A1, “AROMATIC SULFONAMIDE DERIVATIVES” (BAYER PHARMA AKTIENGESELLSCHAFT, priority 2015, published 2018):

Assays:
[1] = molecular target: T1, P2X4 (Homo sapiens, UniProt Q99571); assay: Assay B: human P2X4 receptor cell line, mitochondrial photina luminescence (agonist Bz-ATP at EC50); format: cell-based; set-up: host or cells: HEK 293 (recombinant, constitutively expressing; with mitochondrial photina in Assay B); settings: HEK human P2X4 cell line, photina luminescence, agonist Bz-ATP at EC50, average; for Emax: read-out: human P2X4 Assay B avg Efficacy
T1 sequence (Q99571 1-388): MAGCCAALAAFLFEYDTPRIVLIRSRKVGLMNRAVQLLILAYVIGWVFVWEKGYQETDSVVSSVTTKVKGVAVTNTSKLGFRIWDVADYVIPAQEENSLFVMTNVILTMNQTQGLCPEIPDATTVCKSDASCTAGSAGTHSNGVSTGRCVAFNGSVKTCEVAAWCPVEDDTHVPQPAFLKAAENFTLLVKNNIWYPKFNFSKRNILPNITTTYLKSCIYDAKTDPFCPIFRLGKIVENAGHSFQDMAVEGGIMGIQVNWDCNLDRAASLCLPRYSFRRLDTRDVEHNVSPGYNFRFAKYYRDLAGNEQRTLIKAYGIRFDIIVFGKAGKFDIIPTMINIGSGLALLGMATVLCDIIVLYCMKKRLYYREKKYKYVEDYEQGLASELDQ
Summary of the method: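 Bz-ATP at its EC50 activates human P2X4 stably expressed in a cell line that also carries the calcium-sensitive photoprotein mitochondrial photina (coelenterazine cofactor). Light emitted on calcium influx is measured straight away in a luminometer. Reduced luminescence indicates antagonism.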

[2] = molecular target: T1, P2X4; assay: Assay A: human P2X4 receptor cell line, FLIPR calcium assay (Fluo-8, agonist Bz-ATP at EC80); format: cell-based; set-up: host or cells: HEK 293 (recombinant, constitutively expressing; with mitochondrial photina in Assay B); settings: HEK human P2X4 cells, Fluo-8 FLIPR; for IC50: Bz-ATP at EC80, average values; for Emax: percentage of maximal inhibition, read-out: human P2X4 Assay A avg Efficacy
Summary of the method: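 Antagonism read as inhibition of the calcium response to EC80 Bz-ATP, by peak-over-basal Fluo-8 fluorescence over 120 s, normalized to DMSO wells. Human P2X4-HEK cells, dye-loaded 30 min in probenecid-containing HBSS/HEPES pH 7.4, received compound 30 min beforehand at room temperature, 0.5% DMSO final. Triplicates fitted for IC50, maximal inhibition and Hill slope.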

In the case of `NS(=O)(=O)c1cc(NC(=O)Cc2cccc(F)c2Cl)c(Cl)cc1Oc1cccc(Cl)c1` [Example 083, N-[2-chloro-4-(3-chlorophenoxy)-5-sulfamoylphenyl]-2-(2-chloro-3-fluorophenyl)acetamide], the Emax [1] is reported as 35%, the IC50 [2] is reported as > 25 µM and the Emax [2] is reported as 39%.

`NS(=O)(=O)c1cc(NC(=O)Cc2ccc(F)cc2)ccc1Oc1cccc(Cl)c1` [Example 085, N-[4-(3-Chlorophenoxy)-3-sulfamoylphenyl]-2-(4-fluorophenyl)acetamide] gave an Emax [1] of 59% and an Emax [2] of 86%.

In the case of `NS(=O)(=O)c1cc(NC(=O)Cc2ccccc2C(F)F)ccc1Oc1cccc(Cl)c1` [Example 089, N-[4-(3-Chlorophenoxy)-3-sulfamoylphenyl]-2-[2-(difluoromethyl)phenyl]acetamide], the IC50 [1] is reported as 0.145 µM, the Emax [1] is reported as 66% and the IC50 [2] is reported as 0.102 µM. It also gave an Emax [2] of 85%.

`NS(=O)(=O)c1cc(NC(=O)Cc2ccccc2Br)ccc1Oc1cccc(Cl)c1` [Example 091, 2-(2-Bromophenyl)-N-[4-(3-chlorophenoxy)-3-sulfamoylphenyl]acetamide] was tested, and the IC50 [1] was 0.053 µM, the Emax [1] was 58% and the IC50 [2] was 0.027 µM. The Emax [2] was 75%.

`Cc1ccc(CC(=O)Nc2ccc(Oc3cccc(Cl)c3)c(S(N)(=O)=O)c2)c(Cl)c1` [Example 095, 2-(2-Chloro-4-methylphenyl)-N-[4-(3-chlorophenoxy)-3-sulfamoylphenyl]acetamide] gave an IC50 [1] of 0.099 µM, an Emax [1] of 63% and an IC50 [2] of 0.137 µM. For the same compound, the Emax [2] was 64%.

`Cc1cccc(Cl)c1CC(=O)Nc1ccc(Oc2cccc(Cl)c2)c(S(N)(=O)=O)c1` [Example 096, 2-(2-Chloro-6-methylphenyl)-N-[4-(3-chlorophenoxy)-3-sulfamoylphenyl]acetamide] gave an IC50 [1] of 0.027 µM, an Emax [1] of 59% and an IC50 [2] of 0.078 µM. For the same compound, the Emax [2] was 72%.

In the case of `Cc1ccc(Cl)c(CC(=O)Nc2ccc(Oc3cccc(Cl)c3)c(S(N)(=O)=O)c2)c1` [Example 097, 2-(2-Chloro-5-methylphenyl)-N-[4-(3-chlorophenoxy)-3-sulfamoylphenyl]acetamide], the IC50 [1] is reported as 0.123 µM, the Emax [1] is reported as 78% and the IC50 [2] is reported as 0.119 µM. It also gave an Emax [2] of 84%.

In the case of `COc1cccc(Cl)c1CC(=O)Nc1ccc(Oc2cccc(Cl)c2)c(S(N)(=O)=O)c1` [Example 101, 2-(2-Chloro-6-methoxyphenyl)-N-[4-(3-chlorophenoxy)-3-sulfamoylphenyl]acetamide], the IC50 [1] is reported as 0.059 µM, the Emax [1] is reported as 69% and the IC50 [2] is reported as 0.038 µM. It also gave an Emax [2] of 97%.

With `COc1ccc(Cl)c(CC(=O)Nc2ccc(Oc3cccc(Cl)c3)c(S(N)(=O)=O)c2)c1` [Example 102, 2-(2-Chloro-5-methoxyphenyl)-N-[4-(3-chlorophenoxy)-3-sulfamoylphenyl]acetamide] the IC50 [1] was 0.084 µM, the Emax [1] was 61% and the IC50 [2] was 0.068 µM. It also gave an Emax [2] of 85%.

Compound `NS(=O)(=O)c1cc(NC(=O)Cc2cccc(Cl)c2Cl)ccc1Oc1cccc(Cl)c1` [Example 103, N-[4-(3-Chlorophenoxy)-3-sulfamoylphenyl]-2-(2,3-dichlorophenyl)acetamide] has an IC50 [1] of 0.141 µM, an Emax [1] of 70% and an IC50 [2] of 0.208 µM. For the same compound, the Emax [2] was 78%.

In the case of `NS(=O)(=O)c1cc(NC(=O)Cc2cccc(C(F)(F)F)c2Cl)ccc1Oc1cccc(Cl)c1` [Example 107, N-[4-(3-Chlorophenoxy)-3-sulfamoylphenyl]-2-[2-chloro-3-(trifluoromethyl)phenyl]acetamide], the IC50 [1] is reported as 0.901 µM, the Emax [1] is reported as 64% and the IC50 [2] is reported as 0.201 µM. It also gave an Emax [2] of 86%.

Work on `NS(=O)(=O)c1cc(NC(=O)Cc2ccc(Cl)cc2Cl)ccc1Oc1cccc(Cl)c1` [Example 110, N-[4-(3-Chlorophenoxy)-3-sulfamoylphenyl]-2-(2,4-dichlorophenyl)acetamide] yielded an IC50 [1] of 0.159 µM, an Emax [1] of 37% and an IC50 [2] of 0.254 µM. For the same compound, the Emax [2] was 79%.

Compound `NS(=O)(=O)c1cc(NC(=O)Cc2ccccc2OC(F)F)ccc1Oc1cccc(Cl)c1` [Example 113, N-[4-(3-Chlorophenoxy)-3-sulfamoylphenyl]-2-[2-(difluoromethoxy)phenyl]acetamide] has an IC50 [1] of 0.239 µM, an Emax [1] of 73% and an IC50 [2] of 0.173 µM. For the same compound, the Emax [2] was 88%.

`NS(=O)(=O)c1cc(NC(=O)Cc2ccc(C(F)(F)F)cc2)ccc1Oc1cccc(Cl)c1` [Example 116, N-[4-(3-Chlorophenoxy)-3-sulfamoylphenyl]-2-[4-(trifluoromethyl)phenyl]acetamide] gave an Emax [1] of 72% and an Emax [2] of 87%.

Work on `NS(=O)(=O)c1cc(NC(=O)Cc2cc(Br)ccc2Cl)ccc1Oc1cccc(Cl)c1` [Example 117, 2-(5-Bromo-2-chlorophenyl)-N-[4-(3-chlorophenoxy)-3-sulfamoylphenyl]acetamide] yielded an IC50 [1] of 0.468 µM, an Emax [1] of 61% and an IC50 [2] of 0.043 µM. For the same compound, the Emax [2] was 94%.

With `Cc1ccc(F)c(CC(=O)Nc2ccc(Oc3cccc(Cl)c3)c(S(N)(=O)=O)c2)c1Cl` [Example 120, 2-(2-Chloro-6-fluoro-3-methylphenyl)-N-[4-(3-chlorophenoxy)-3-sulfamoylphenyl]acetamide] the IC50 [1] was 0.194 µM, the Emax [1] was 78% and the IC50 [2] was 0.065 µM. The Emax [2] was 83%.

`NS(=O)(=O)c1cc(NC(=O)Cc2c(F)ccc(F)c2Cl)ccc1Oc1cccc(Cl)c1` [Example 122, 2-(2-Chloro-3,6-difluorophenyl)-N-[4-(3-chlorophenoxy)-3-sulfamoylphenyl]acetamide] showed an IC50 [1] of 0.105 µM, an Emax [1] of 54% and an IC50 [2] of 0.026 µM. It also gave an Emax [2] of 83%.

With `Cc1ccc(Cl)c(CC(=O)Nc2ccc(Oc3cccc(Cl)c3)c(S(N)(=O)=O)c2)c1Cl` [Example 128, N-[4-(3-Chlorophenoxy)-3-sulfamoylphenyl]-2-(2,6-dichloro-3-methylphenyl)acetamide] the IC50 [1] was 0.38 µM, the Emax [1] was 60% and the IC50 [2] was 0.184 µM. It also gave an Emax [2] of 77%.

With `NS(=O)(=O)c1cc(NC(=O)Cc2c(Cl)ccc(C3CC3)c2Cl)ccc1Oc1cccc(Cl)c1` [Example 129, N-[4-(3-Chlorophenoxy)-3-sulfamoylphenyl]-2-(2,6-dichloro-3-cyclopropylphenyl)acetamide] the IC50 [1] was 1.3 µM, the Emax [1] was 69% and the IC50 [2] was 1.17 µM. The Emax [2] was 83%.

Compound `NS(=O)(=O)c1cc(NC(=O)Cc2c(Cl)ccc(C(F)(F)F)c2Cl)ccc1Oc1cccc(Cl)c1` [Example 130, N-[4-(3-Chlorophenoxy)-3-sulfamoylphenyl]-2-[2,6-dichloro-3-(trifluoromethyl)phenyl]acetamide] has an IC50 [1] of 1.05 µM, an Emax [1] of 70% and an IC50 [2] of 0.979 µM. For the same compound, the Emax [2] was 91%.

`NS(=O)(=O)c1cc(NC(=O)Cc2c(Cl)ccc(Br)c2Cl)ccc1Oc1cccc(Cl)c1` [Example 131, 2-(3-bromo-2,6-dichlorophenyl)-N-[4-(3-chlorophenoxy)-3-sulfamoylphenyl]acetamide] showed an IC50 [1] of 2.4 µM, an Emax [1] of 86% and an IC50 [2] of 0.284 µM. It also gave an Emax [2] of 77%.

With `Cc1ccc(Br)c(Cl)c1CC(=O)Nc1ccc(Oc2cccc(Cl)c2)c(S(N)(=O)=O)c1` [Example 132, 2-(3-Bromo-2-chloro-6-methylphenyl)-N-[4-(3-chlorophenoxy)-3-sulfamoylphenyl]acetamide] the IC50 [1] was 0.64 µM, the Emax [1] was 102% and the IC50 [2] was 0.541 µM. It also gave an Emax [2] of 72%.

`Cc1c(Br)ccc(Cl)c1CC(=O)Nc1ccc(Oc2cccc(Cl)c2)c(S(N)(=O)=O)c1` [Example 133, 2-(3-Bromo-6-chloro-2-methylphenyl)-N-[4-(3-chlorophenoxy)-3-sulfamoylphenyl]acetamide] showed an IC50 [1] of 4.1 µM, an Emax [1] of 92% and an IC50 [2] of 0.375 µM. For the same compound, the Emax [2] was 75%.

For `NS(=O)(=O)c1cc(NC(=O)Cc2cc(OC(F)(F)C(F)F)ccc2Cl)ccc1Oc1cccc(Cl)c1` [Example 134, N-[4-(3-Chlorophenoxy)-3-sulfamoylphenyl]-2-[2-chloro-5-(1,1,2,2-tetrafluoroethoxy)phenyl]acetamide], the IC50 [1] was 1.35 µM, the Emax [1] was 77% and the IC50 [2] was 0.688 µM. It also gave an Emax [2] of 83%.

Compound `NS(=O)(=O)c1cc(NC(=O)Cc2ccc(C(F)(F)F)cc2Cl)ccc1Oc1cccc(Cl)c1` [Example 135, N-[4-(3-Chlorophenoxy)-3-sulfamoylphenyl]-2-[2-chloro-4-(trifluoromethyl)phenyl]acetamide] has an IC50 [1] of 0.87 µM, an Emax [1] of 45% and an IC50 [2] of 0.631 µM. The Emax [2] was 75%.

For `CS(=O)(=O)c1cccc(COc2ccc(NC(=O)Cc3ccccc3Cl)cc2S(N)(=O)=O)c1` [Example 136, 2-(2-Chlorophenyl)-N-(4-{[3-(methylsulfonyl)benzyl]oxy}-3-sulfamoylphenyl)acetamide], the IC50 [1] was 0.102 µM, the Emax [1] was 83% and the IC50 [2] was 0.01 µM. It also gave an Emax [2] of 90%.
